In experiment [1] the target is Potassium-transporting ATPase (Oryctolagus cuniculus). As to the kind of experiment: Compound was tested in vitro for H+/K+ ATPase activity in rabbit stomach preparations.
Experiment [2] relates to Rattus norvegicus. As to the kind of experiment: Compound was tested in vivo for gastric antisecretory activity after 5 hr of pylorus ligation of SD rat. It is filed as functional. The settings on record: Stomach.

Bounds are passed on as bounds.

As for `COc1cccc2c1ncc1c(CO)cn(-c3ccc(F)cc3C)c12`, the IC50 – broadly, the concentration at which inhibition is half-maximal – in experiment [1] was greater than 100 µM. As to `CCc1cn(-c2ccc(F)cc2C)c2c1cnc1c(OC)cccc12`, it took a dose of 13 mg/kg to reach the 50% effect level in experiment [2] (ED50). The compound further showed an IC50 in experiment [1] of 5.7 µM. Turning to `COc1ccc2[nH]c([S+]([O-])Cc3ncc(C)c(OC)c3C)nc2c1` (stereo unspecified) [OMEPRAZOLE], the ED50 (usually the dose at which the effect has come halfway, by size or by number of responders) in experiment [2] came to 3.2 mg/kg.

In turn, `COc1cccc2c1ncc1c(C)cn(-c3ccc(OC(C)=O)cc3C)c12` came in with an ED50 in experiment [2] of 47 mg/kg. The IC50 in experiment [1] was found to be 3.4 µM. The compound `COc1cccc2c1ncc1c(C)cn(-c3ccc(F)cc3C)c12` displayed an ED50 in experiment [2] of 10 mg/kg. Besides, it took 14 µM to reach half-maximal inhibition in experiment [1] (IC50). For `Cc1ccccc1-n1cc(C)c2cnc3c(OC(F)(F)F)cccc3c21`, the IC50 in experiment [1] was greater than 100 µM. Compound `CCc1cn(-c2ccc(O)cc2C)c2c1cnc1c(OC)cccc12` gave an ED50 in experiment [2] of 59 mg/kg. Besides, in experiment [1], the IC50 amounted to 4.8 µM. `COc1cccc2c1ncc1c(CCO)cn(-c3ccc(F)cc3C)c12` displayed an IC50 in experiment [1] greater than 100 µM. `COc1cccc2c1ncc1c(C)cn(-c3ccccc3C)c12` came in with an ED50 in experiment [2] of 13 mg/kg. In experiment [1], the IC50 was 8.2 µM. For `COc1cccc2c1ncc1c(C(C)C)cn(-c3ccccc3C)c12` the same measures were 90 mg/kg and 17 µM. For `CCCC(=O)c1cnc2c(OC)cccc2c1Nc1ccccc1C` the same measures were 20 mg/kg and 18 µM. Turning to `COc1cccc2c1nc(C)c1c(C)cn(-c3ccc(F)cc3C)c12`, in experiment [1], the IC50 is 72 µM. The same measure, in the same setting: for `COc1cccc2c1ncc1c(CCO)cn(-c3ccccc3C)c12` the value was 80 µM; for `COc1cccc2c1nc(C)c1c(C)cn(-c3ccccc3C)c12`, greater than 100 µM.

On to `Cc1ccccc1-n1cc(C)c2cnc3c(O)cccc3c21`, for which the ED50 in experiment [2] was determined as 58 mg/kg. The same compound displayed an IC50 in experiment [1] of 4.8 µM.

The compound `COc1cccc2c1ncc1c(CO)cn(-c3ccccc3C)c12` displayed an IC50 in experiment [1] of 100 µM. For `COc1cccc2c1ncc1c(C(C)C)cn(-c3ccc(O)cc3C)c12`, in experiment [2], the ED50 amounted to 49 mg/kg. In experiment [1], this compound registered an IC50 of 7.2 µM.

Source of the values: ChEMBL document CHEMBL1131995, “Synthesis and pharmacological profile of 1-aryl-3-substituted pyrrolo[3,2-c]quinolines” (Bioorg Med Chem Lett, 1999).
